According to the supplement of paper PMC10307832:

Key:
Experiment in all cases: relative viability (nuclei count vs DMSO), 5 days (fraction); higher = more cells survive
Masitinib + Phenformin = compound: Cc1ccc(NC(=O)c2ccc(CN3CCN(C)CC3)cc2)cc1Nc1nc(-c2cccnc2)cs1 [Masitinib] + N=C(N)NC(=N)NCCc1ccccc1 [Phenformin] (partner 250 µM)
Method in brief: (§1)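 Relative viability divides the nuclei count in treated wells by that in vehicle wells. Lung cancer cell lines were seeded in 1536-well plates, dosed by pin tool the next day, and fixed and stained after 5 days in one step with final 0.05% Triton X-100, 1% formaldehyde and 1 ug/ml Hoechst. Dosing was a single drug or a fixed anchor-drug dose plus five library-drug doses (not always all listed) in √10 steps, and values are medians of duplicate plates imaged at 4×.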

[1] = compound: CC1=CC(=CC=C1)NC2=NC(=CS2)C3=CC=NC=C3 + CC(C)C[C@H](NC(=O)[C@H](Cc1ccccc1)NC(=O)c1cnccn1)B(O)O [Bortezomib] (partner 0.002 µM)
Method in brief: as §1

[2] = compound: CC1=CC(=CC=C1)NC2=NC(=CS2)C3=CC=NC=C3 + Nc1nc2[nH]cc(CCc3ccc(C(=O)N[C@@H](CCC(=O)O)C(=O)O)cc3)c2c(=O)[nH]1 [Pemetrexed] (partner 0.2 µM)
Method in brief: as §1

[3] = compound: CC1=CC(=CC=C1)NC2=NC(=CS2)C3=CC=NC=C3 + CC1(C)CCC(c2ccc(Cl)cc2)=C(CN2CCN(c3ccc(C(=O)NS(=O)(=O)c4ccc(N[C@H](CCN5CCOCC5)CSc5ccccc5)c(S(=O)(=O)C(F)(F)F)c4)cc3)CC2)C1 [Navitoclax] (partner 0.5 µM)
Method in brief: as §1

Cell Line	relative viability (Masitinib + Phenformin; first compound 0.01 µM)	relative viability (Masitinib + Phenformin; first compound 0.03162 µM)	relative viability (Masitinib + Phenformin; first compound 0.1 µM)	relative viability (Masitinib + Phenformin; first compound 0.3162 µM)	relative viability (Masitinib + Phenformin; first compound 1 µM)	relative viability ([1]; first compound 0.08 µM)	relative viability ([1]; first compound 0.253 µM)	relative viability ([1]; first compound 0.8 µM)	relative viability ([1]; first compound 2.53 µM)	relative viability ([1]; first compound 8 µM)	relative viability ([2]; first compound 0.08 µM)	relative viability ([2]; first compound 0.253 µM)	relative viability ([2]; first compound 0.8 µM)	relative viability ([2]; first compound 2.53 µM)	relative viability ([2]; first compound 8 µM)	relative viability ([3]; first compound 0.08 µM)	relative viability ([3]; first compound 0.253 µM)	relative viability ([3]; first compound 0.8 µM)	relative viability ([3]; first compound 2.53 µM)	relative viability ([3]; first compound 8 µM)
201T	0.362	0.409	0.373	0.471	0.44	1.05	1.06	1.08	0.888	0.919	0.339	0.293	0.321	0.301	0.334	1.2	1.22	1.21	1.26	0.993
A549	0.148	0.186	0.153	0.198	0.12											1.05	1.23	1.19	1.16	0.866
A-427		0.292		0.309	0.235	0.84	1.03	0.895		0.84	0.915	1.02	0.987	0.899	0.932	0.955	0.962	0.899		0.875
ABC-1	0.204	0.24	0.228	0.209	0.234	0.316	0.265	0.328	0.315	0.32										
BEN	0.288		0.268	0.272	0.253	0.816	0.618	0.546	0.697	0.794	0.685	0.841	0.936	0.584	0.682	0.0747	0.0619	0.0712	0.0922	0.084
CAL-12T	0.525	0.637	0.594	0.553	0.509	0.757		1.01	0.719	0.954	1.19	0.94	1.15	1.05	1.07	1.19	1.06	1.16	1.05	1.24
COR-L23	0.415	0.434	0.507	0.428	0.417	1.01	0.913	0.779	0.924	0.595	0.184	0.194	0.201	0.189	0.184	0.982	0.804	0.722	0.965	0.973
COR-L 105	0.505	0.542	0.604	0.515	0.425	0.7	0.804	0.734	0.563	0.456	1.01	0.903	0.898	1.02	0.797	0.573	0.779	0.634	0.809	0.456
Calu-6						0.951	0.838	0.88	0.94	0.926						0.748	0.685	0.763	0.773	0.711
ChaGo-K-1	0.509	0.455	0.511	0.467	0.411	0.866	0.775	1.06	0.579	0.812	0.259	0.272	0.249	0.266	0.252	0.9	0.806	1.06	0.411	0.849
EBC-1						0.434	0.463	0.602	0.517	0.282						0.376	0.381	0.516	0.391	0.227
EKVX		0.213	0.235	0.214	0.199	1.01	0.994	0.747	0.957	0.696	0.361	0.333		0.32	0.328	0.901	0.837	0.676	0.923	0.98
EMC-BAC-2	0.485	0.494	0.524	0.53	0.457	0.982	1.04	1.01	0.99	0.927	0.393	0.402	0.413	0.432	0.393	1.06	1.22	1.1	1.15	0.963
EPLC-272H	0.317	0.212	0.285	0.305	0.257	1.03		0.73		0.352	0.404	0.375	0.264	0.31	0.332	1.02		0.871		0.979
H3255	0.388	0.277	0.374	0.315	0.407	0.664	0.624	0.886	0.586	0.604	0.585	0.546	0.568	0.54	0.54	0.573	0.304	0.561	0.533	0.496
HARA		0.417	0.399	0.398	0.424	1.09	1.16	1.1	1.03	0.936	0.267	0.22	0.203	0.255	0.276	1.11	1.16	1.12	1.12	1.08
HCC-15	0.448	0.453	0.497	0.459	0.405	0.963	1.03	0.973	1.02	0.753	0.222	0.214	0.203	0.194	0.214	0.698	0.661	0.65	0.615	0.507
HCC-44	0.236	0.188	0.213	0.323	0.185	0.75	0.702	0.71	0.707	0.809	0.537	0.55	0.586	0.663	0.607	0.759	0.728	0.709	0.749	0.813
HCC-78	0.724	0.638	0.752	0.663	0.718	0.409	0.473	0.469	0.414	0.274	0.907	0.963	0.827	0.917	0.9	0.67	0.883	0.841	0.746	0.788
HCC-366		0.59		0.572	0.575	0.875	1.04	0.998	1.06	0.985	0.154	0.123	0.121	0.113	0.0949	0.934	1.04	1.04	0.884	0.949
HCC-827	0.395	0.433	0.382	0.411	0.318	1.05	0.903	0.946	0.974	0.882	0.283	0.274	0.282	0.256	0.272	0.989	0.937	0.956	1.02	0.935
HOP-62	0.55	0.744	0.668	0.827	0.691	0.673	0.784	1.16	0.588	0.496	0.325	0.412	0.458	0.369	0.319	0.865	1.01	1.13	1.11	1.01

Cell Line	relative viability (Masitinib + Phenformin; first compound 0.01 µM)	relative viability (Masitinib + Phenformin; first compound 0.03162 µM)	relative viability (Masitinib + Phenformin; first compound 0.1 µM)	relative viability (Masitinib + Phenformin; first compound 0.3162 µM)	relative viability (Masitinib + Phenformin; first compound 1 µM)	relative viability ([1]; first compound 0.08 µM)	relative viability ([1]; first compound 0.253 µM)	relative viability ([1]; first compound 0.8 µM)	relative viability ([1]; first compound 2.53 µM)	relative viability ([1]; first compound 8 µM)	relative viability ([2]; first compound 0.08 µM)	relative viability ([2]; first compound 0.253 µM)	relative viability ([2]; first compound 0.8 µM)	relative viability ([2]; first compound 2.53 µM)	relative viability ([2]; first compound 8 µM)	relative viability ([3]; first compound 0.08 µM)	relative viability ([3]; first compound 0.253 µM)	relative viability ([3]; first compound 0.8 µM)	relative viability ([3]; first compound 2.53 µM)	relative viability ([3]; first compound 8 µM)
IA-LM						0.803		0.705	0.511	0.494						0.74		0.769	0.439	0.401
LC-2-ad	0.517	0.573	0.622	0.627	0.557	0.884	0.94	1.13	0.873	0.875	0.269	0.281	0.308	0.258	0.276	0.395	0.379	0.383	0.464	0.278
LCLC-103H	0.339	0.348	0.306	0.344	0.293	0.995	1.12	1.05	1.1	0.635	0.415	0.434	0.45	0.46	0.488					
LK-2	0.481	0.347	0.423	0.535	0.43							0.315	0.263	0.135	0.347	0.917	0.958	0.901		1.46
NCI-H358	0.316	0.346	0.359	0.363	0.327						0.153	0.19	0.175	0.176	0.166					
NCI-H522	0.653		0.635	0.775	0.714						0.966	1.12	1.17	0.995	1.19					
NCI-H650	0.508	0.428	0.514	0.303	0.425	0.76	0.72	1.09		0.857	0.953	0.88	1.07	0.863	1.06					
NCI-H661	0.267	0.286	0.254	0.26	0.267	0.864	0.862	0.759	0.653	0.706	0.876	0.959	0.889	0.907	0.871					
NCI-H727	0.641	0.636	0.5	0.616	0.44	0.547	0.774	0.834	0.549	0.446						0.458	0.372	0.383	0.345	0.269
NCI-H1299						0.973	0.983	0.91	1.04	0.885						0.981	0.99	0.986	1.07	1.01
NCI-H1395	0.42	0.442	0.473	0.47	0.424						0.757		0.921	0.596	0.728	0.984	1.1	1.04	0.971	0.993
NCI-H1563	0.631	0.701	0.689	0.684	0.643	0.794	0.842	0.808	0.836	0.59	0.744	0.739	0.717	0.742	0.881					
NCI-H1623	0.509	0.494	0.564	0.52	0.533															
NCI-H1648											0.639	0.626	0.749	0.673	0.633					
NCI-H1703						0.241	0.317	0.334	0.336	0.331						0.92	1.13	1.38	1.26	1.07
NCI-H1793	0.329	0.357	0.405	0.349	0.262						0.603	0.779	0.808	0.604	0.957		0.521	0.523	0.438	0.402
NCI-H1944		0.196		0.196	0.186						0.543	0.6	0.636	0.654	0.476	1.03	1.01	1.05	1.01	1.01
NCI-H2170	0.354	0.396	0.386	0.386	0.378						0.229	0.286	0.27	0.26	0.264	0.631	0.575	0.538	0.545	0.426
NCI-H2342	0.71	0.567	0.615	0.614	0.573						0.615	0.796	0.765	0.789	0.759					
SK-MES-1	0.657	0.691	0.686	0.659	0.512						0.757	0.762	0.787	0.822	0.862	0.94	1.02	1.1	1.06	1.08
SW 900	0.652	0.609	0.706	0.448	0.436						0.507	0.4	0.473	0.42	0.366					
